In paper PMC6639251, “Selective Kinase Inhibition Shows That Bur1 (Cdk9) Phosphorylates the Rpb1 Linker In Vivo” (Molecular and Cellular Biology, 2019):

What was measured:
Kin28/Cdk7 (Kin28-IS) = target: T1, Kin28/Cdk7 (Kin28-IS) (Saccharomyces cerevisiae, UniProt P06242, V21C/L83G); assay: immunoblot of Rpb1 CTD phosphorylation in yeast cells and in nuclear-extract elongation complexes; type: cell-based; conditions: covalent; engineered hole and cysteine in ATP pocket; 20 uM in cells 15 min 30 C; 250 nM in nuclear extract
T1 construct: allele integrated at the natural chromosomal locus; in living yeast and nuclear extract, part of TFIIH; HA-tagged plasmid form (35 kDa) only for expression test
T1 sequence (P06242 1-306 V21C/L83G): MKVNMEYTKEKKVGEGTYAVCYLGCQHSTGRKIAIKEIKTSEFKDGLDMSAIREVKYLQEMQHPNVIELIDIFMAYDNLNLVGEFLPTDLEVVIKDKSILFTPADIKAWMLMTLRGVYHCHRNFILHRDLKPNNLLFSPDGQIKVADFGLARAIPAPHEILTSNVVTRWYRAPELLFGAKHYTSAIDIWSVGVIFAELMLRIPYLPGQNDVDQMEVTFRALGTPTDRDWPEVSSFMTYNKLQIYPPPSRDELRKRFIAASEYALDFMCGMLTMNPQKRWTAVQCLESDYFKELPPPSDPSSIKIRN

Ctk1/Cdk12 (Ctk1-IS) = target: T2, Ctk1/Cdk12 (Ctk1-IS) (Saccharomyces cerevisiae, UniProt Q03957, V197C/F260G); assay: immunoblot of Rpb1 CTD Ser2P in yeast cells and in nuclear-extract elongation complexes; type: cell-based; conditions: covalent; engineered hole and cysteine in ATP pocket; 20 uM in cells 15 min 30 C; 250 nM in nuclear extract
T2 construct: allele integrated at the natural chromosomal locus; in living yeast and nuclear extract; HA3-tagged plasmid form (61 kDa) only for expression test
T2 sequence (Q03957 1-528 V197C/F260G): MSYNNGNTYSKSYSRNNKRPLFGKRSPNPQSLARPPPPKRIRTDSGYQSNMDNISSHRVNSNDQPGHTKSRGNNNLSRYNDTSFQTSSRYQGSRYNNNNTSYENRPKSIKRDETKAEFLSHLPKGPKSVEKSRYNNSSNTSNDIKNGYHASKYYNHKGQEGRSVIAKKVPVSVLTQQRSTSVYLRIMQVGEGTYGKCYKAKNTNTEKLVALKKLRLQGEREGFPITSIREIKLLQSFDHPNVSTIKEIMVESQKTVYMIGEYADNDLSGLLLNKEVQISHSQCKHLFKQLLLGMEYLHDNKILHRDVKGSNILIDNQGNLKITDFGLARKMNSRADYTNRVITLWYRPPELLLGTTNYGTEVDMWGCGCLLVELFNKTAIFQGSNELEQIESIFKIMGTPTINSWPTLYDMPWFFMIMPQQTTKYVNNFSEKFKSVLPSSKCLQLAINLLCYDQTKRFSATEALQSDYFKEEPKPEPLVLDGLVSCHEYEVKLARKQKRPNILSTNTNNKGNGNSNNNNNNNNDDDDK

Cc1ccc(-c2c(C(=O)CCl)n(CCCO)c3ncnc(N)c23)cc1 [CMK]
immunoblot of Rpb1 CTD phosphorylation in yeast cells and in nuclear-extract elo (Kin28/Cdk7 (Kin28-IS)): treatment of the Kin28-IS strain with CMK led to a significant drop in CTD Ser5P | immunoblot of Rpb1 CTD Ser2P in yeast cells and in nuclear-extract elongation co (Ctk1/Cdk12 (Ctk1-IS)): 15-min CMK treatment of Ctk1-IS cells caused very strong loss of Ser2P
